Source: patent US10894807B2 (Siemens Medical Solutions USA, Inc., priority 2011, dated 2021)

Molecular target: human PSMA (Homo sapiens (Human), UniProt Q04609)
Assay: Enzymatic assay for in vitro evaluation of PSMA inhibitors (fluorescent assay of PSMA activity, NAAG substrate, OPA detection of glutamate)
Assay type: biochemical

human PSMA, sequence (Q04609 whole entry): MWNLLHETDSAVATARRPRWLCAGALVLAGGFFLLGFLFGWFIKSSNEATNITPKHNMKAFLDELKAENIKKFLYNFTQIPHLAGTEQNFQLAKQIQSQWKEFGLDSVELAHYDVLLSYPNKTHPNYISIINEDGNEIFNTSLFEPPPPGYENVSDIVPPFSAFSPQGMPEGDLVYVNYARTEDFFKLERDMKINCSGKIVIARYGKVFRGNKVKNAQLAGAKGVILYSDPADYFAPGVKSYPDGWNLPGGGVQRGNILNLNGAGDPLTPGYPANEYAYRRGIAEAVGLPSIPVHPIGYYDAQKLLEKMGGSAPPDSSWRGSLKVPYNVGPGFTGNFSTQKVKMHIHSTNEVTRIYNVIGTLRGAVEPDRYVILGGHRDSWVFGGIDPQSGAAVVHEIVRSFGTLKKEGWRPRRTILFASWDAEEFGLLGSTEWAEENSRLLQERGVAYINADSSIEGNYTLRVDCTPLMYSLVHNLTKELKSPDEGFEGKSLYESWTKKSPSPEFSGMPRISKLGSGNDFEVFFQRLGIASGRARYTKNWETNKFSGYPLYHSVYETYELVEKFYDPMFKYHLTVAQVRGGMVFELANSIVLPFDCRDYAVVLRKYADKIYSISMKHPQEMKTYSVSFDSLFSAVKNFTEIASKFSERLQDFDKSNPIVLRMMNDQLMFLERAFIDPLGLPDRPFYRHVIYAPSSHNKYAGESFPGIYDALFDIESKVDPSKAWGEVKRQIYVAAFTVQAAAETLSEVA

PSMA Blkg % (1.0 μM) | Ki | Structure (SMILES)
82% | – | O=C(O)CC[C@H](NC(=O)N[C@@H](CCCCNC(=O)c1cc(C(=O)Nc2ccc(C[C@H](NC(=O)N[C@@H](CCC(=O)O)C(=O)O)C(=O)O)cc2)cc(-n2cc(CCCF)nn2)c1)C(=O)O)C(=O)O [P267, (S)-2-(3-((S)-1-Carboxy-2-(4-(3-(((S)-5-carboxy-5-(3-((S)-1,3-dicarboxypropyl)ureido)pentyl)carbamoyl)-5-(4-(3-fluoropropyl)-1H-1,2,3-triazol-1-yl)benzamido)phenyl)ethyl)ureido)pentanedioic Acid]
68% | – | O=C(O)CC[C@H](NC(=O)N[C@@H](CCCCNC(=O)c1cc(C(=O)N[C@@H](CCC(=O)O)C(=O)O)cc(-n2cc(CCCF)nn2)c1)C(=O)O)C(=O)O [P268, (S)-2-(3-((S)-1-Carboxy-5-(3-(((S)-1,3-dicarboxypropyl)carbamoyl)-5-(4-(3-fluoropropyl)-1H-1,2,3-triazol-1-yl)benzamido)pentyl)ureido)pentanedioic Acid]
66% | – | O=C(O)CC[C@H](NC(=O)N[C@@H](CCCCNc1ccc([N+](=O)[O-])c(F)n1)C(=O)O)C(=O)O [P269, (S)-2-(3-((S)-1-Carboxy-5-((6-fluoro-5-nitropyridin-2-yl)amino)pentyl)ureido)pentanedioic Acid]
98% | 0.8 nM | O=C(O)CC[C@H](NC(=O)N[C@@H](CCCCNc1cc(NCCOCCn2cc(CCCF)nn2)ncn1)C(=O)O)C(=O)O [P271, (S)-2-(3-((S)-1-Carboxy-5-((6-((2-(2-(4-(3-fluoropropyl)-1H-1,2,3-triazol-1-yl)ethoxy)ethyl)amino)pyrimidin-4-yl)amino)pentyl)ureido)pentanedioic Acid]
97% | 2.5 nM | O=C(O)CC[C@H](NC(=O)N[C@@H](CC1CCN(C(=O)c2cc(C(=O)N3CCC(C[C@H](NC(=O)N[C@@H](CCC(=O)O)C(=O)O)C(=O)O)CC3)cc(-n3cc(CCCF)nn3)c2)CC1)C(=O)O)C(=O)O [P272, (S)-2-(3-((S)-1-Carboxy-2-(1-(3-(4-((S)-2-carboxy-2-(3-((S)-1,3-dicarboxypropyl)-ureido)ethyl)piperidine-1-carbonyl)-5-(4-(3-fluoropropyl)-1H-1,2,3-triazol-1-yl)benzoyl)piperidin-4-yl)ethyl)ureido)pentanedioic Acid]
– | 1.3 nM | O=C(O)CC[C@H](NC(=O)N[C@@H](CCCCNC(=O)CC(CC(=O)NCCCC[C@H](NC(=O)N[C@@H](CCC(=O)O)C(=O)O)C(=O)O)NC(=O)Cn1cc(CCCF)nn1)C(=O)O)C(=O)O [P276, (3S,7S,23S,27S)-15-(2-(4-(3-Fluoropropyl)-1H-1,2,3-triazol-1-yl)acetamido)-5,13,17,25-tetraoxo-4,6,12,18,24,26-hexaazanonacosane-1,3,7,23,27,29-hexacarboxylic Acid]
– | 1.6 nM | O=C(O)CC[C@H](NC(=O)N[C@@H](CCc1nc(-c2ccc([N+](=O)[O-])cc2)co1)C(=O)O)C(=O)O [P279, (S)-2-(3-((S)-1-Carboxy-3-(4-(4-nitrophenyl)oxazol-2-yl)propyl)ureido)pentanedioic Acid]

Structure (SMILES) | PSMA Blkg % (1.0 μM) | Ki
O=C(O)CC[C@H](NC(=O)NC(CCCCNc1nc(NCCN(CCNC(=O)Cn2cc(CCCF)nn2)CCNc2ccc([N+](=O)[O-])c(NCCCCC(NC(=O)N[C@@H](CCC(=O)O)C(=O)O)C(=O)O)n2)ccc1[N+](=O)[O-])C(=O)O)C(=O)O (stereo partly drawn) [P273, (2S,2′S)-2,2′-(((((1S,1′S)-((6,6′-((((2-(2-(4-(3-Fluoropropyl)-1H-1,2,3-triazol-1-yl)acetamido)ethyl)azanediyl)bis(ethane-2,1-diyl))bis(azanediyl))bis(3-nitropyridine-6,2-diyl))bis(azanediyl))bis(1-carboxypentane-5,1-diyl))bis(azanediyl))bis(carbonyl))bis(azanediyl))dipentanedioic Acid] | 97% | 0.2 nM
